This passage reports fold change (FC) and IC50 results from ChEMBL document CHEMBL3271962 (J Med Chem, 1976).

Broadly, the IC50 is the concentration needed to halve the response being measured. Low readings indicate greater potency in that assay, high ones weaker potency in that assay.

The species named for one assay is Rattus norvegicus. In words: Inhibition of [3H]norepinephrine uptake at NET expressed in rat hypothalamic homogenate containing synaptosomes after 5 mins by scintillation counting analysis relative to (+)-amphetamine. It is filed as subcellular. Conditions: Brain.
Assay [1] has as its target Sodium-dependent dopamine transporter (Rattus norvegicus) (UniProt P23977). Kind of assay: Inhibition of [3H]dopamine uptake at dopamine transporter expressed in rat striatal homogenate after 5 mins by scintillation counting analysis relative to (+)-amphetamine.
A further assay deals with Transporter (Rattus norvegicus, UniProt Q63380). Kind of assay: Inhibition of [3H]norepinephrine uptake at NET expressed in rat hypothalamic homogenate containing synaptosomes after 5 mins by scintillation counting analysis. Type of assay: subcellular, Brain.
Assay [2] has as its target Sodium-dependent dopamine transporter (Rattus norvegicus, UniProt P23977). In words: Inhibition of [3H]dopamine uptake at dopamine transporter expressed in rat striatal homogenate after 5 mins by scintillation counting analysis.

Sequence of Sodium-dependent dopamine transporter (P23977 whole entry): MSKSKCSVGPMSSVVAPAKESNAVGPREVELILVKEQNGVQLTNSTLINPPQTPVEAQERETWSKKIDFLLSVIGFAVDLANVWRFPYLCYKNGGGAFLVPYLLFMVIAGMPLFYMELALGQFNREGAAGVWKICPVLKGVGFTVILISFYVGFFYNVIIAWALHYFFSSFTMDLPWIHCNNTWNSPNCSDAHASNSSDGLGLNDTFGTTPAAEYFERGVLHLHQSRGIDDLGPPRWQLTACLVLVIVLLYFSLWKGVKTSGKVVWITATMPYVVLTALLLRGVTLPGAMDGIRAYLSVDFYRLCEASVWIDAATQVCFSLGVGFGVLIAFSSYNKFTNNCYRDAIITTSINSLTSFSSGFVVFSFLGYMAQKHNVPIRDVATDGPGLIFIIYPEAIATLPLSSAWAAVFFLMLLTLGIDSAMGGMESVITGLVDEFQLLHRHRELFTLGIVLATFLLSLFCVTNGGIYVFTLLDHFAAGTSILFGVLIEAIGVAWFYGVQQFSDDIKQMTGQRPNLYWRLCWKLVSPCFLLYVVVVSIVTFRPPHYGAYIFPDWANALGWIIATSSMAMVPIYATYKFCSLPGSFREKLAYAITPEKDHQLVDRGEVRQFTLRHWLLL
Sequence of Sodium-dependent dopamine transporter (Rattus norvegicus) (P23977 whole entry): as above
Sequence of Transporter (Q63380 whole entry): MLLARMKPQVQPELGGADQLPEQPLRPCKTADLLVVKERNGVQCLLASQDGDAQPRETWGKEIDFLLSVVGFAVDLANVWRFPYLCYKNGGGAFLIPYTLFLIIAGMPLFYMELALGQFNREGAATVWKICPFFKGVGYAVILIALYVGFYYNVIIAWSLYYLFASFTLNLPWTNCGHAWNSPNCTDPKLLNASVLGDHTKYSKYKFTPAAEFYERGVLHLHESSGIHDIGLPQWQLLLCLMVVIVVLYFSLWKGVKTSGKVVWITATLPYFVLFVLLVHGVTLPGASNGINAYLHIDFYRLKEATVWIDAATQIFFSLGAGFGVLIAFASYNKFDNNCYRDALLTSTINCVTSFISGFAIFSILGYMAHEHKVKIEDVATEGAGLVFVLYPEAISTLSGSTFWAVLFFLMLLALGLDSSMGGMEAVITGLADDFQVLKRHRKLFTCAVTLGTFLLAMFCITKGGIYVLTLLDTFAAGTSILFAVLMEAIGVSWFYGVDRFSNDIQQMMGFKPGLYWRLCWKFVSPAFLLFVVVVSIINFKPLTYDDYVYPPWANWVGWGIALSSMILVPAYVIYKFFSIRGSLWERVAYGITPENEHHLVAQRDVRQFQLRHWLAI

On to `NC1C[C@@H]2CCCC[C@H]2CC1c1ccccc1` (mixture of isomers; 1) [listing 1 of 2 here], for which the fold change (FC) stood at 30 in the assay filed under Rattus norvegicus and 25 in assay [1].
In the case of `NC1C[C@@H]2CCCC[C@H]2CC1c1ccccc1` (mixture of isomers; 2) [listing 1 of 2 here], the results for the IC50 (on Transporter; in assay [2]) were 18 µM and 12 µM, respectively.
With `NC1C[C@@H]2CCCC[C@H]2CC1c1ccccc1` (mixture of isomers; 2) [listing 2 of 2 here], the fold change (FC) worked out at 1.1 in the assay filed under Rattus norvegicus and 8 in assay [1].
For the molecule `NC1C[C@@H]2CCCC[C@H]2CC1c1ccccc1` (mixture of isomers; 4) [listing 1 of 2 here], the IC50 was 5.5 µM against Transporter and 7 µM in assay [2].
As for `NC1C[C@@H]2CCCC[C@H]2CC1(O)c1ccc(O)c(O)c1` (mixture of isomers; form 3), the fold change (FC) in the assay listed under Rattus norvegicus was found to be 0.03; in assay [1], 1.1.
For `NC1C[C@@H]2CCCC[C@H]2CC1c1ccccc1` (mixture of isomers; 3) [listing 1 of 2 here], the fold change (FC) in the assay listed under Rattus norvegicus stood at 2.2; in assay [1] it was 4.8.
For the molecule `NC1C[C@@H]2CCCC[C@H]2CC1c1ccccc1` (mixture of isomers; 1) [listing 2 of 2 here], the IC50 at Transporter was 0.66 µM; in assay [2], 3.8 µM.
Consider `NC1C[C@@H]2CCCC[C@H]2CC1(O)c1ccc(O)c(O)c1` (mixture of isomers; form 1), for which the results for the fold change (FC) (in the assay filed under Rattus norvegicus; in assay [1]) were 4.4 and 2.3, respectively.
The like results for `NC1C[C@@H]2CCCC[C@H]2CC1(O)c1ccc(O)c(O)c1` (mixture of isomers; form 4) were, in that order, 2 and 5.7.
For `NC1C[C@@H]2CCCC[C@H]2CC1c1ccccc1` (mixture of isomers; 3) [listing 2 of 2 here], the IC50 at Transporter is 9 µM; in assay [2], 20 µM.
`NC1C[C@@H]2CCCC[C@H]2CC1(O)c1ccc(O)c(O)c1` (mixture of isomers; form 2): the fold change (FC) was 8.9 in the assay listed under Rattus norvegicus and 50 in assay [1].
The like results for `NC1C[C@@H]2CCCC[C@H]2CC1c1ccccc1` (mixture of isomers; 4) [listing 2 of 2 here] were, in that order, 3.6 and 14.
For the molecule `NC[C@H](O)c1ccc(O)c(O)c1`, the fold change (FC) (in the assay listed under Rattus norvegicus; in assay [1]) was 100 throughout.
